Series [1] relates to Pseudomonas aeruginosa. Description: Antibacterial activity against Pseudomonas aeruginosa 119 incubated for 18 to 24 hrs by broth microdilution method. Format: functional. Particulars: time 18-24 hrs.
A further series has as its system Bacillus subtilis. Description: Antibacterial activity against Bacillus subtilis ATCC 23857 incubated for 18 to 24 hrs by broth microdilution method. Type of series: functional. The conditions noted are these: time 18-24 hrs. For orientation: In broth dilution the organism is exposed to a series of concentrations in liquid medium.
For the next series, the system named is Acinetobacter baumannii. As to the kind of experiment: Antibacterial activity against Acinetobacter baumannii ATCC 19606 incubated for 18 to 24 hrs by broth microdilution method. Format: functional. Particulars: time 18-24 hrs.
Series [2] has as its system Staphylococcus aureus. As to the kind of experiment: Antibacterial activity against methicillin resistant Staphylococcus aureus 48 incubated for 18 to 24 hrs by broth microdilution method. Type of series: functional. The conditions noted are these: time 18-24 hrs.
The test system of series [3] is Escherichia coli. Description: Antibacterial activity against Escherichia coli 850 incubated for 18 to 24 hrs by broth microdilution method. Type of series: functional. Particulars: time 18-24 hrs.
The subject of series [4] is Staphylococcus aureus. As to the kind of experiment: Antibacterial activity against methicillin resistant Staphylococcus aureus ATCC 33591 incubated for 18 to 24 hrs by broth microdilution method. Type of series: functional. Particulars: time 18-24 hrs.
Series [5] has as its system Escherichia coli. Description: Antibacterial activity against Escherichia coli ATCC 25922 incubated for 18 to 24 hrs by broth microdilution method. Type of series: functional. Particulars: time 18-24 hrs.
Series [6] deals with Pseudomonas aeruginosa. Description: Antibacterial activity against Pseudomonas aeruginosa ATCC 27853 incubated for 18 to 24 hrs by broth microdilution method. Format: functional. The conditions noted are these: time 18-24 hrs.
Series [7] can be described thus: Cytotoxicity against HEK293T cells incubated for 1 hr by fluorescence based microplate reader assay. Type of series: toxicity, cell-based, HEK-293T. The conditions noted are these: human.
Series [8] is described as follows: Hemolytic activity in mouse erythrocyte incubated for 1 hr by microplate reader assay. Type of series: toxicity, cell-based.
For series [9], the system named is Staphylococcus aureus. As to the kind of experiment: Antibacterial activity against Staphylococcus aureus 794 incubated for 18 to 24 hrs by broth microdilution method. Type of series: functional. The conditions noted are these: time 18-24 hrs.
For the next series, the system named is Klebsiella pneumoniae. Description: Antibacterial activity against Klebsiella pneumoniae ATCC 700603 incubated for 18 to 24 hrs by broth microdilution method. Type of series: functional. The conditions noted are these: time 18-24 hrs.
The test system of series [10] is Escherichia coli. As to the kind of experiment: Antibacterial activity against Escherichia coli 780 incubated for 18 to 24 hrs by broth microdilution method. Type of series: functional. The conditions noted are these: time 18-24 hrs.
In series [11] the test system is Staphylococcus aureus. Description: Antibacterial activity against Staphylococcus aureus ATCC 25923 incubated for 18 to 24 hrs by broth microdilution method. Type of series: functional. Particulars: time 18-24 hrs.

We go through 6 compounds from ChEMBL document CHEMBL6092167, “Phosphorylation as an Effective Tool to Improve Stability and Reduce Toxicity of Antimicrobial Peptides” (J Med Chem, 2024).

Usually MIC stands for the lowest concentration found to suppress growth. A lower MIC goes with greater potency. By CC50 is commonly meant the concentration giving 50% cytotoxicity.

≈ marks a conversion by molar mass, not a printed value. Non-standard residues stand in square brackets, D forms with d. Residues, ends and D or L forms follow the SMILES beside them. pY = N[C@@H](Cc1ccc(OP(=O)(O)O)cc1)C(=O)O; pT = C[C@@H](OP(=O)(O)O)[C@H](N)C(=O)O; 2Nal = N[C@@H](Cc1ccc2ccccc2c1)C(=O)O A value given as a limit tells only on which side of the number the result lay.

As to `CC(C)C[C@H](NC(=O)[C@H](CC(C)C)NC(=O)[C@H](Cc1ccc(OP(=O)(O)O)cc1)NC(=O)[C@H](CCCCN)NC(=O)[C@H](Cc1c[nH]c2ccccc12)NC(=O)[C@H](CCCNC(=N)N)NC(=O)[C@H](CCCCN)NC(=O)[C@H](CC(C)C)NC(=O)[C@H](CC(C)C)NC(=O)CN)C(N)=O` (H-GLLKRWK[pY]LL-NH2), the MIC against Pseudomonas aeruginosa [1] is 128 µM (≈ 175 µg/mL); in the series on Bacillus subtilis it was 64 µM (≈ 87.6 µg/mL); in the series with Acinetobacter baumannii, 64 µM (≈ 87.6 µg/mL); in the series on Staphylococcus aureus [2] it was above 128 µM; with Escherichia coli [3] it was 64 µM (≈ 87.6 µg/mL); against Staphylococcus aureus [4], above 128 µM. In addition, the MIC with Escherichia coli [5] is 64 µM (≈ 87.6 µg/mL); in the series with Pseudomonas aeruginosa [6], 128 µM (≈ 175 µg/mL); with Staphylococcus aureus [9], 32 µM (≈ 43.8 µg/mL); in the series on Klebsiella pneumoniae, 128 µM (≈ 175 µg/mL); in the series with Escherichia coli [10], 64 µM (≈ 87.6 µg/mL); in the series on Staphylococcus aureus [11], above 128 µM. The compound further displayed a CC50 at 1 h in series [7] above 128 µM. The compound also yielded an MHC in series [8] above 256 µM.
As to `CC(C)C[C@H](NC(=O)[C@H](CC(C)C)NC(=O)[C@@H](NC(=O)[C@H](CCCCN)NC(=O)[C@H](Cc1ccc2ccccc2c1)NC(=O)[C@H](CCCNC(=N)N)NC(=O)[C@H](CCCCN)NC(=O)[C@H](CC(C)C)NC(=O)[C@H](CC(C)C)NC(=O)CN)[C@@H](C)O)C(N)=O` (H-GLLKR[2Nal]KTLL-NH2), the MIC stood at 16 µM (≈ 19.8 µg/mL) with Pseudomonas aeruginosa [1]; 4 µM (≈ 4.95 µg/mL) against Bacillus subtilis; 32 µM (≈ 39.6 µg/mL) with Acinetobacter baumannii; 16 µM (≈ 19.8 µg/mL) against Staphylococcus aureus [2]; 16 µM (≈ 19.8 µg/mL) against Escherichia coli [3]; 16 µM (≈ 19.8 µg/mL) with Staphylococcus aureus [4]. Besides, the MIC against Escherichia coli [5] turned out to be 16 µM (≈ 19.8 µg/mL); with Pseudomonas aeruginosa [6], 4 µM (≈ 4.95 µg/mL); with Staphylococcus aureus [9], 8 µM (≈ 9.9 µg/mL); with Klebsiella pneumoniae it was 16 µM (≈ 19.8 µg/mL); against Escherichia coli [10], 8 µM (≈ 9.9 µg/mL); against Staphylococcus aureus [11], 16 µM (≈ 19.8 µg/mL). The same compound gave a CC50 at 1 h in series [7] of 177 µM. The same compound returned an MHC in series [8] above 256 µM.
As to `CC(C)C[C@H](NC(=O)[C@H](CC(C)C)NC(=O)[C@@H](NC(=O)[C@H](CCCCN)NC(=O)[C@H](Cc1ccc2ccccc2c1)NC(=O)[C@H](CCCNC(=N)N)NC(=O)[C@H](CCCCN)NC(=O)[C@H](CC(C)C)NC(=O)[C@H](CC(C)C)NC(=O)CN)[C@@H](C)OP(=O)(O)O)C(N)=O` (H-GLLKR[2Nal]K[pT]LL-NH2), the MIC against Pseudomonas aeruginosa [1] is 128 µM (≈ 169 µg/mL); against Bacillus subtilis, 128 µM (≈ 169 µg/mL); with Acinetobacter baumannii, 128 µM (≈ 169 µg/mL); against Staphylococcus aureus [2], above 128 µM; in the series on Escherichia coli [3], 128 µM (≈ 169 µg/mL); against Staphylococcus aureus [4], above 128 µM. Moreover, the MIC in the series on Escherichia coli [5] was above 128 µM; with Pseudomonas aeruginosa [6], 128 µM (≈ 169 µg/mL); with Staphylococcus aureus [9] it was 128 µM (≈ 169 µg/mL); in the series on Klebsiella pneumoniae, above 128 µM; in the series on Escherichia coli [10] it was above 128 µM; in the series on Staphylococcus aureus [11], above 128 µM. Also, the CC50 at 1 h in [7] was above 128 µM. In addition, the MHC in series [8] was above 256 µM.
Turning to `O=C(O)c1cn(C2CC2)c2cc(N3CCNCC3)c(F)cc2c1=O` [CIPROFLOXACIN], the MIC was 2 µM (≈ 0.663 µg/mL) against Bacillus subtilis; 16 µM (≈ 5.3 µg/mL) in the series on Acinetobacter baumannii; below 1 µM against Escherichia coli [5]; 4 µM (≈ 1.33 µg/mL) with Pseudomonas aeruginosa [6]; 16 µM (≈ 5.3 µg/mL) with Staphylococcus aureus [11].
As for `C[C@@H](O)[C@H]1C(=O)N2C(C(=O)O)=C(S[C@@H]3CN[C@H](C(=O)N(C)C)C3)[C@H](C)[C@H]12` [MEROPENEM], the MIC is 8 µM (≈ 3.07 µg/mL) with Pseudomonas aeruginosa [1]; below 1 µM in the series on Bacillus subtilis; 2 µM (≈ 0.767 µg/mL) in the series with Acinetobacter baumannii; 128 µM (≈ 49.1 µg/mL) with Staphylococcus aureus [2]; below 1 µM in the series with Escherichia coli [3]; 64 µM (≈ 24.5 µg/mL) in the series with Staphylococcus aureus [4]. In addition, the MIC was below 1 µM in the series with Escherichia coli [5]; 1 µM (≈ 0.383 µg/mL) in the series with Pseudomonas aeruginosa [6]; below 1 µM in the series with Staphylococcus aureus [9]; 2 µM (≈ 0.767 µg/mL) in the series with Klebsiella pneumoniae; below 1 µM with Escherichia coli [10]; below 1 µM in the series on Staphylococcus aureus [11].
On to `COc1cccc(OC)c1C(=O)N[C@@H]1C(=O)N2[C@@H]1SC(C)(C)[C@@H]2C(=O)O` [METHICILLIN], for which the MIC against Pseudomonas aeruginosa [1] is above 128 µM; with Bacillus subtilis, below 1 µM; against Acinetobacter baumannii it was above 128 µM; with Staphylococcus aureus [2], above 128 µM; against Escherichia coli [3], above 128 µM; against Staphylococcus aureus [4], above 128 µM. The MIC with Escherichia coli [5] is above 128 µM; against Pseudomonas aeruginosa [6], above 128 µM; against Staphylococcus aureus [9], above 128 µM; against Klebsiella pneumoniae, above 128 µM; in the series on Escherichia coli [10] it was above 128 µM; in the series with Staphylococcus aureus [11], 8 µM (≈ 3.04 µg/mL).
